Results reported in PMC11345841, “Exploring 2-Sulfonylpyrimidine Warheads as Acrylamide Surrogates for Targeted Covalent Inhibition: A BTK Story” (Journal of Medicinal Chemistry, 2024).
Like-named read-outs stand apart in the source and are kept apart here.

Columns and labels:
Experiment in all cases: KINOMEscan ScanTK
Type in all cases: binding
BLK = molecular target: T1, BLK (Homo sapiens, UniProt P51451)
T1 construct: purchased Eurofins DiscoverX KINOMEscan (scanTK)

CTK = molecular target: T2, CTK (Homo sapiens, UniProt P42679)
T2 construct: purchased Eurofins DiscoverX KINOMEscan (scanTK)
T2 sequence (P42679 1-507): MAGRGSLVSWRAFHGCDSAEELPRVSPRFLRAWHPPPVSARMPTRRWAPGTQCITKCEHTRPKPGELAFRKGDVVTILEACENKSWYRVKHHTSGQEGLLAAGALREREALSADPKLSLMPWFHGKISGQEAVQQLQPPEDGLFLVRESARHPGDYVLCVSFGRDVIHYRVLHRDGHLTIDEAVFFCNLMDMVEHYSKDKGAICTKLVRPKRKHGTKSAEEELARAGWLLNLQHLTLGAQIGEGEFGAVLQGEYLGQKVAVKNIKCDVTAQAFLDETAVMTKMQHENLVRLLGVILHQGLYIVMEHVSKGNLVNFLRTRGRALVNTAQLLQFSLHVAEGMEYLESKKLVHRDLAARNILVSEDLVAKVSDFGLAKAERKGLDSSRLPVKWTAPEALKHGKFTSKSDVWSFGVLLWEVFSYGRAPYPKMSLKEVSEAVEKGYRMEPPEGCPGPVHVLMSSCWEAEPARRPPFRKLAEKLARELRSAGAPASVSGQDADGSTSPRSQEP

ERBB4 = molecular target: T3, ERBB4 (Homo sapiens, UniProt Q15303)
T3 construct: purchased Eurofins DiscoverX KINOMEscan (scanTK)

FER = molecular target: T4, FER (Homo sapiens, UniProt P16591)
T4 construct: purchased Eurofins DiscoverX KINOMEscan (scanTK)

FGFR3 = molecular target: T5, FGFR3 (Homo sapiens, UniProt P22607)
T5 construct: purchased Eurofins DiscoverX KINOMEscan (scanTK)

FLT3(K663Q) = molecular target: T6, FLT3(K663Q) (Homo sapiens, UniProt P36888, K663Q)
T6 construct: purchased Eurofins DiscoverX KINOMEscan (scanTK)
T6 sequence (P36888 27-993 K663Q): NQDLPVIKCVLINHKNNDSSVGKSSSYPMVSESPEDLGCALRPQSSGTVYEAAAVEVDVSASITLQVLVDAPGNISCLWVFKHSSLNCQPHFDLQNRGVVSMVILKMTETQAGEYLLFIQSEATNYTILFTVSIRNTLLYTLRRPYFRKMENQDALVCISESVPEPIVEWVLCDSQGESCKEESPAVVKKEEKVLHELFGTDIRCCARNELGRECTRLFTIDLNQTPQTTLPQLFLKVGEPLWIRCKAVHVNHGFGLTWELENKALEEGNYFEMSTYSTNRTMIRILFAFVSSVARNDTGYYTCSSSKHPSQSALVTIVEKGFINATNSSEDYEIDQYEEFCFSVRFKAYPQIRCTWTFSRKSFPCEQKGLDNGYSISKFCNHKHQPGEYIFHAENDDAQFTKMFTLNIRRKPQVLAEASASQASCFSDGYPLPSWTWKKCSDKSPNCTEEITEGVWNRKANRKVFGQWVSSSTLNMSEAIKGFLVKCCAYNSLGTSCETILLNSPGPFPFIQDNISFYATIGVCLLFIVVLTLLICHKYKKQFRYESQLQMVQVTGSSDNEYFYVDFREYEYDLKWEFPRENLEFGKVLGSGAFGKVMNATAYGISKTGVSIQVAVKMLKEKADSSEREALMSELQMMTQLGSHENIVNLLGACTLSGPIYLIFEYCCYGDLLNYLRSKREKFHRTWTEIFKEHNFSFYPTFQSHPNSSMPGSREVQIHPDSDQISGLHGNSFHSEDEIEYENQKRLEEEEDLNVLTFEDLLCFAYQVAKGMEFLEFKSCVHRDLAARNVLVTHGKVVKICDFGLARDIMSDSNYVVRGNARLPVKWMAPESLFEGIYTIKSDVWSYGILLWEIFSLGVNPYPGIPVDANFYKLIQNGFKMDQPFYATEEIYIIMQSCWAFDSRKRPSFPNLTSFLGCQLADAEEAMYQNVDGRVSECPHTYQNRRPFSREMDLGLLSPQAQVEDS

MET(M1250T) = molecular target: T7, MET(M1250T) (Homo sapiens, UniProt P08581, M1250T)
T7 construct: purchased Eurofins DiscoverX KINOMEscan (scanTK)

TRKB = molecular target: T8, TRKB (Homo sapiens, UniProt Q16620)
T8 construct: purchased Eurofins DiscoverX KINOMEscan (scanTK)

[1] = @1000nM, BLK, read-out: %Control
[2] = BLK, read-out: %Control @1000nM

T1 sequence (P51451 whole entry): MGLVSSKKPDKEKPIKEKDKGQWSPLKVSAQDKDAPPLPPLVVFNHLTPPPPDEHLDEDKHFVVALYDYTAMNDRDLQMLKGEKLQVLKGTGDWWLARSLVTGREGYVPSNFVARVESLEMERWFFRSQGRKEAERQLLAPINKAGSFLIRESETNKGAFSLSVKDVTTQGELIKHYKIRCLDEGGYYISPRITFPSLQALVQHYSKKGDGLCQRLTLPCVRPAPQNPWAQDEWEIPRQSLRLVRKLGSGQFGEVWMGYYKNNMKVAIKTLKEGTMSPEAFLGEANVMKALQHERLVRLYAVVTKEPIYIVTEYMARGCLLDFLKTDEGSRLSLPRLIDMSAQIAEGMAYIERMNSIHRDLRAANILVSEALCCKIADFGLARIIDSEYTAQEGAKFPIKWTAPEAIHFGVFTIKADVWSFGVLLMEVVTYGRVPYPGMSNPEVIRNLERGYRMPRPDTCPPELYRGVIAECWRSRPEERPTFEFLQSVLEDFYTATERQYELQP
T7 sequence (P08581 25-1390 M1250T): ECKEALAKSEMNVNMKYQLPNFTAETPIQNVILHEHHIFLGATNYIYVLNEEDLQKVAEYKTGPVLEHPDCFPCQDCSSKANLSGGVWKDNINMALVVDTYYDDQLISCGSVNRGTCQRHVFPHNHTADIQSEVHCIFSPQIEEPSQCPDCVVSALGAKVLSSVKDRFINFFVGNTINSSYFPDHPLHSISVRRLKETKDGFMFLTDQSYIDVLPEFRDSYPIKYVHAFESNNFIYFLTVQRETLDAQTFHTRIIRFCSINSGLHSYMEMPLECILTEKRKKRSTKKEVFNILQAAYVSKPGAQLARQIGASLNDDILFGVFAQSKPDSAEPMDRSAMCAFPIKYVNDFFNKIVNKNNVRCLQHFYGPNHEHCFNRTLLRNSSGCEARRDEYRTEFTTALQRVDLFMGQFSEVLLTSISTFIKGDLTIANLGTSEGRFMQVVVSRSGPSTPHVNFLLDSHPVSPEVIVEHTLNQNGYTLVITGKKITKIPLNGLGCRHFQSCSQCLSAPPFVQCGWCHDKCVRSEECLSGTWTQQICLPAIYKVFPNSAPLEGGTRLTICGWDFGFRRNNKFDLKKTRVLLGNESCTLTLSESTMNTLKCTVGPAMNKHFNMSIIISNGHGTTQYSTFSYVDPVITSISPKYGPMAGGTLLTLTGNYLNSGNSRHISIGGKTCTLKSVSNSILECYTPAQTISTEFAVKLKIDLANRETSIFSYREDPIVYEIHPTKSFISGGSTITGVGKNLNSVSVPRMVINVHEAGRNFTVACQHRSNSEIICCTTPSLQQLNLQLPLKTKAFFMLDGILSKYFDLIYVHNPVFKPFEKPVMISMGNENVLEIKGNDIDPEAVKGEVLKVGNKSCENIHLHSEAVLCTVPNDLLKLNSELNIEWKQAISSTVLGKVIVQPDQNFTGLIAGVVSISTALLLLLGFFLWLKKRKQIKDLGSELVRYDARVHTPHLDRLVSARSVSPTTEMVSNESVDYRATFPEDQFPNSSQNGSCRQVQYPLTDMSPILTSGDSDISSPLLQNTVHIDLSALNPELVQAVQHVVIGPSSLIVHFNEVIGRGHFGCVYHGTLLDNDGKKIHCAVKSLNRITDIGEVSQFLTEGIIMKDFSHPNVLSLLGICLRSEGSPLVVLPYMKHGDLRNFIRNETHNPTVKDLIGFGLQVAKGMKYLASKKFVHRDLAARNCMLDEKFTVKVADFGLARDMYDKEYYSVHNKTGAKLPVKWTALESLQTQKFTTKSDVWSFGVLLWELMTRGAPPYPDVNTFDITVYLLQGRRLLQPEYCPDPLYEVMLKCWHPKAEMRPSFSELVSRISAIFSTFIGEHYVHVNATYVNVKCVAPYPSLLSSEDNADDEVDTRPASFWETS
T4 sequence (P16591 whole entry): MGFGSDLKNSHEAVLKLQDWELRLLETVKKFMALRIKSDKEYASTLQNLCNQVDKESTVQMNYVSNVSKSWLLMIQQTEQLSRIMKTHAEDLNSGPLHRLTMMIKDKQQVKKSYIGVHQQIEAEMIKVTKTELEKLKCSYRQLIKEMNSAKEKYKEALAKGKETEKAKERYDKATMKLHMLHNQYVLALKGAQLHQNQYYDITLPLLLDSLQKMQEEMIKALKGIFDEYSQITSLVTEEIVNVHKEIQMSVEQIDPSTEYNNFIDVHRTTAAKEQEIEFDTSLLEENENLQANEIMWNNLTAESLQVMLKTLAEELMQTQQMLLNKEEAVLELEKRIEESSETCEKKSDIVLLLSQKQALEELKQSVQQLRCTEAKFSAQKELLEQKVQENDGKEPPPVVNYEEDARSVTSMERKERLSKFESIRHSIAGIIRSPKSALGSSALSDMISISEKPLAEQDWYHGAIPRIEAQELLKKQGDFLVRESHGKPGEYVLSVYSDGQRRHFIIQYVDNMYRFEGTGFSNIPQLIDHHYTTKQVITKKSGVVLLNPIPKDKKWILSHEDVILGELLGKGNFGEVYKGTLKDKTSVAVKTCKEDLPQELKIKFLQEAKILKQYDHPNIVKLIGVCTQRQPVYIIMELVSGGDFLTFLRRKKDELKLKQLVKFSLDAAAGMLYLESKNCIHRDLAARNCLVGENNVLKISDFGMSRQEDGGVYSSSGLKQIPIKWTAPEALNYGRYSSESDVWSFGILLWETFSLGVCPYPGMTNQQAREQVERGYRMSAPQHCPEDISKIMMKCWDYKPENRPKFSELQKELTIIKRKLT
T5 sequence (P22607 23-806): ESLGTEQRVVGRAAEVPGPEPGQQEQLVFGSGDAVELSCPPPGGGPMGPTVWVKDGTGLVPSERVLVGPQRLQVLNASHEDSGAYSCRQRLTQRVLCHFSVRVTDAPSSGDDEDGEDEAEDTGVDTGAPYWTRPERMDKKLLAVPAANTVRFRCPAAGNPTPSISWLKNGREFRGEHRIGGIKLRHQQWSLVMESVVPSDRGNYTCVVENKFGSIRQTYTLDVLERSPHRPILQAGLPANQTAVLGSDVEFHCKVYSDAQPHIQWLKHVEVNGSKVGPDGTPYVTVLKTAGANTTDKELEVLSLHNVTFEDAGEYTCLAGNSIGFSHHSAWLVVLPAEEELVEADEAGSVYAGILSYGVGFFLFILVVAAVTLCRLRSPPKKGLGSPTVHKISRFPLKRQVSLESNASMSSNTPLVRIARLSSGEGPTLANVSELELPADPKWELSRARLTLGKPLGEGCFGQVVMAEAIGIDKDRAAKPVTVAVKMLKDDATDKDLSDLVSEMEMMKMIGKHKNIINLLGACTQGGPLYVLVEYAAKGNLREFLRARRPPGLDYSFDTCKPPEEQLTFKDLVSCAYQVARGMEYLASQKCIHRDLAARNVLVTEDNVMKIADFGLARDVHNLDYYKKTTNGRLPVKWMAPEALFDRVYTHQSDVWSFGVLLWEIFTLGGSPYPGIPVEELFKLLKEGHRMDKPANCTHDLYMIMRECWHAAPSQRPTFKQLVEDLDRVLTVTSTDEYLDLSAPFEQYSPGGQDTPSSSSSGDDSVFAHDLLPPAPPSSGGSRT
T3 sequence (Q15303 26-1308): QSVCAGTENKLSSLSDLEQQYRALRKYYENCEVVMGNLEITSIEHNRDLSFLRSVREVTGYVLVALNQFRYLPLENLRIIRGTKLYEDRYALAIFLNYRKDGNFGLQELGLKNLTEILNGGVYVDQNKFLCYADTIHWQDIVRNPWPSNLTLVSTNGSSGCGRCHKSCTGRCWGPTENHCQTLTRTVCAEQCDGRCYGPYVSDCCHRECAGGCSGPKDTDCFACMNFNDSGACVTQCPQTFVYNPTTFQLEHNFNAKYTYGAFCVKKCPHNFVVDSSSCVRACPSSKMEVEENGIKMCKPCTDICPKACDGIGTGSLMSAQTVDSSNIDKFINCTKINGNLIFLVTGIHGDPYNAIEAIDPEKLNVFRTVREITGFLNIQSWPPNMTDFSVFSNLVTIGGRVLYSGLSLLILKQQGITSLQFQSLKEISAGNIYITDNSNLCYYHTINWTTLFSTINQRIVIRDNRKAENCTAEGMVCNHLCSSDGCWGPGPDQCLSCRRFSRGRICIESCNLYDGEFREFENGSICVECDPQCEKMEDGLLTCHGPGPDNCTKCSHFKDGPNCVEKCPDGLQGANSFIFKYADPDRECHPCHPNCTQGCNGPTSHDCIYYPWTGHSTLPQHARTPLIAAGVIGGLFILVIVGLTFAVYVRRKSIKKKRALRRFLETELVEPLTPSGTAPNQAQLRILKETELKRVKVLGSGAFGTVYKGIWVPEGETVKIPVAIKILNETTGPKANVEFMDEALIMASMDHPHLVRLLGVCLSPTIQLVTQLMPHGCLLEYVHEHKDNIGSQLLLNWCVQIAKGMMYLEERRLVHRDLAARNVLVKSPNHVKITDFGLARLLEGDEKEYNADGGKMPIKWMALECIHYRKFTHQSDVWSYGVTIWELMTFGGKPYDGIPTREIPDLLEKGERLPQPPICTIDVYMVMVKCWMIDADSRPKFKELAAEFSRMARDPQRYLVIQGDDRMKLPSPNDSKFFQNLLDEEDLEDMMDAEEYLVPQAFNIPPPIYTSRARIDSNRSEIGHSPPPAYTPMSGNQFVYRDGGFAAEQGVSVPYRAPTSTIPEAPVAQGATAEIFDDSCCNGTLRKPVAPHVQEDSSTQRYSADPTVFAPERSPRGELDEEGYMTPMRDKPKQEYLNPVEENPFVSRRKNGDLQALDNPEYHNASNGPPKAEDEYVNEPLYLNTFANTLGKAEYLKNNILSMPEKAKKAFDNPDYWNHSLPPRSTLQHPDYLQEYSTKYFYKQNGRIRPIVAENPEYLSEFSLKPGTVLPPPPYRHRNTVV

| SMILES | remaining binding at 1 µM (BLK; [1]) [%] | remaining binding at 1 µM (BLK; [2]) [%] | remaining binding at 1 µM (CTK; @1000nM, read-out: %Control) [%] | remaining binding at 1 µM (CTK; read-out: %Control @1000nM) [%] | remaining binding at 1 µM (ERBB4; @1000nM, read-out: %Control) [%] | remaining binding at 1 µM (ERBB4; read-out: %Control @1000nM) [%] | remaining binding at 1 µM (FER; @1000nM, read-out: %Control) [%] | remaining binding at 1 µM (FER; read-out: %Control @1000nM) [%] | remaining binding at 1 µM (FGFR3; @1000nM, read-out: %Control) [%] | remaining binding at 1 µM (FGFR3; read-out: %Control @1000nM) [%] | remaining binding at 1 µM (FLT3(K663Q); @1000nM, read-out: %Control) [%] | remaining binding at 1 µM (FLT3(K663Q); read-out: %Control @1000nM) [%] | remaining binding at 1 µM (MET(M1250T); @1000nM, read-out: %Control) [%] | remaining binding at 1 µM (MET(M1250T); read-out: %Control @1000nM) [%] | other results |
| --- | --- | --- | --- | --- | --- | --- | --- | --- | --- | --- | --- | --- | --- | --- | --- |
| C=CC(=O)N1CCC[C@@H](n2nc(-c3ccc(Oc4ccccc4)cc3)c3c(N)ncnc32)C1 [Compound 1g, Ibrutinib, reference compound] | 0.05 | 0.05 | 80 | 80 | 0.05 | 0.05 | 100 | 100 | 48 | 48 | 44 | 44 | 96 | 96 | inhibition at 1 µM (BLK; ScanTK, 1 μM): > 99%; remaining binding at 1 µM (TRKB; read-out: %Control): 92%; remaining binding at 1 µM (TRKB; read-out: %Control @1000nM): 92% |
| Cc1cnc(S(C)(=O)=O)nc1N1CCCC(n2nc(-c3ccc(Oc4ccccc4)cc3)c3c(N)ncnc32)C1 (stereo not shown) [Compound 8a, 1-(1-(5-Methyl-2-(methylsulfonyl)pyrimidin-4-yl)piperidin-3-yl)-3-(4-phenoxyphenyl)-1H-pyrazolo[3,4-d]pyrimidin-4-amine] | 0.1 | 0.1 | 67 | 67 | 64 | 64 | 100 | 100 | 92 | 92 | 58 | 58 | 88 | 88 | difference in %Control vs reference Ib at 1 µM (BLK; @1000nM, BLK, read-out: % difference (compound - Ib %Control)): 0.05%; difference in %Control versus compound Ib at 1 µM (CTK; @1000nM): -13%; difference in %Control versus compound Ib at 1 µM (ERBB4; @1000nM): 64%; difference in %Control versus compound Ib at 1 µM (FER; @1000nM): 0%; difference in %Control versus compound Ib at 1 µM (FGFR3; @1000nM): 44%; difference in %Control from compound Ib at 1 µM (FLT3(K663Q); @1000nM): 14%; difference in %Control versus compound Ib at 1 µM (TRKB; @1000nM, TRKB): -17%; remaining binding at 1 µM (TRKB; @1000nM, TRKB, read-out: %Control): 75%; remaining binding at 1 µM (TRKB; TRKB, read-out: %Control @1000nM): 75% |
